Data: ChEMBL document CHEMBL1136327, “Synthesis of a highly active new anti-HIV agent 2',3'-didehydro-3'-deoxy-4'-ethynylthymidine” (Bioorg Med Chem Lett, 2003)

How the values were obtained:
[1] = test system: Human immunodeficiency virus 1; assay: Inhibitory activity against HIV-1 IIIB to achieve 50% protection of MT-2 cells; format: functional, organism-based; details: Human immunodeficiency virus 1, MT2
MT2 = assay: Cytotoxic concentration required to reduce the viability of mock-infected MT-2 cells by 50%; format: functional; details: Homo sapiens

Cc1cn([C@H]2C=C[C@@H](CO)O2)c(=O)[nH]c1=O [STAVUDINE]
IC50 [1]: 2.8 µM
CC50 (MT2): 100 µM

Cc1cn([C@H]2C=C[C@@](C)(CO)O2)c(=O)[nH]c1=O
IC50 [1]: > 100 µM
CC50 (MT2): > 100 µM

C=C[C@@]1(CO)C=C[C@H](n2cc(C)c(=O)[nH]c2=O)O1
IC50 [1]: > 100 µM
CC50 (MT2): > 100 µM

C#C[C@@]1(CO)C=C[C@H](n2cc(C)c(=O)[nH]c2=O)O1 [CENSAVUDINE]
IC50 [1]: 0.2 µM
CC50 (MT2): > 100 µM
